Results as given in US10028508B2, “Use of active compound compositions” (BAYER CROPSCIENCE AKTIENGESELLSCHAFT, priority 2014, dated 2018).
Like-named read-outs stand apart in the source and are kept apart here.

Test system: Anopheles funestus metabolic-resistant strain FUMOZ-R
Experiment: Metabolic-Resistant Anopheles Test (mortality on treated tile, wood, concrete)
Assay type: in vivo
Conditions: for mortality at 100 mg/m2: Clothianidin 100 mg/m2, read-out: Mortality Effect %; for mortality at 200 mg/m2: Clothianidin 200 mg/m2, read-out: Mortality Effect %
Description: To produce a suitable preparation of active compound combination the active compounds deltamethrin and clothanidin were dissolved in acetone (for the control group only one active compound was dissolved in acetone). The active compound combination preparation (and the active compound preparations) were pipetted onto a glazed tile, wood and concrete and, after drying, adult mosquitoes of the species Anopheles funestus metabolic-resistant strain FUMOZ-R (Hunt et al., Med Vet Entomol. 2005 September; 19(3):271-5) are placed onto the treated tile, wood and concrete. The exposition time is 30 minutes.
1 hour, 2 hour, 4 hour, 24 hours after contact to the treated surface, the mortality proportion of the test animals in % is determined. Here, 100% means that all mosquitoes have been killed; 0% means that none of the mosquitoes has been killed. The treated tile, wood and concrete was stored under stress conditions (30° C./80% rh). Measurement with the treated tile, wood and concrete was repeated 5 weeks (Table 1), 11 weeks (Table 2) and 60 weeks (Table 3) after the treatment with the active compound combination.

[1] = 5 weeks after treatment, Concrete, 1 h after contact
[2] = 5 weeks after treatment, Concrete, 2 h after contact
[3] = 5 weeks after treatment, Concrete, 4 h after contact
[4] = 5 weeks after treatment, Concrete, 24 h after contact
[5] = 5 weeks after treatment, Tile, 1 h after contact
[6] = 5 weeks after treatment, Tile, 2 h after contact
[7] = 5 weeks after treatment, Tile, 4 h after contact
[8] = 5 weeks after treatment, Tile, 24 h after contact
[9] = 5 weeks after treatment, Wood, 1 h after contact
[10] = 5 weeks after treatment, Wood, 2 h after contact
[11] = 5 weeks after treatment, Wood, 4 h after contact
[12] = 5 weeks after treatment, Wood, 24 h after contact
[13] = 11 weeks after treatment, Concrete, 1 h after contact
[14] = 11 weeks after treatment, Concrete, 2 h after contact
[15] = 11 weeks after treatment, Concrete, 4 h after contact
[16] = 11 weeks after treatment, Concrete, 24 h after contact
[17] = 11 weeks after treatment, Tile, 1 h after contact
[18] = 11 weeks after treatment, Tile, 2 h after contact
[19] = 11 weeks after treatment, Tile, 4 h after contact
[20] = 11 weeks after treatment, Tile, 24 h after contact
[21] = 11 weeks after treatment, Wood, 1 h after contact
[22] = 11 weeks after treatment, Wood, 2 h after contact
[23] = 11 weeks after treatment, Wood, 4 h after contact
[24] = 11 weeks after treatment, Wood, 24 h after contact
[25] = 60 weeks after treatment, Concrete, 1 h after contact
[26] = 60 weeks after treatment, Concrete, 2 h after contact
[27] = 60 weeks after treatment, Concrete, 4 h after contact
[28] = 60 weeks after treatment, Concrete, 24 h after contact
[29] = 60 weeks after treatment, Tile, 1 h after contact
[30] = 60 weeks after treatment, Tile, 2 h after contact
[31] = 60 weeks after treatment, Tile, 4 h after contact
[32] = 60 weeks after treatment, Tile, 24 h after contact
[33] = 60 weeks after treatment, Wood, 1 h after contact
[34] = 60 weeks after treatment, Wood, 2 h after contact
[35] = 60 weeks after treatment, Wood, 4 h after contact
[36] = 60 weeks after treatment, Wood, 24 h after contact

CN/C(=N\[N+](=O)[O-])NCc1cnc(Cl)s1 [Clothianidin, clothianidin]
7%: mortality at 100 mg/m2 [6] | mortality at 100 mg/m2 [7] | mortality at 100 mg/m2 [9] | mortality at 200 mg/m2 [9] | mortality at 100 mg/m2 [17] | mortality at 200 mg/m2 [17] | mortality at 200 mg/m2 [26] | mortality at 200 mg/m2 [31]
17%: mortality at 200 mg/m2 [2] | mortality at 200 mg/m2 [14] | mortality at 200 mg/m2 [22] | mortality at 200 mg/m2 [23] | mortality at 200 mg/m2 [27] | mortality at 100 mg/m2 [32] | mortality at 200 mg/m2 [36]
0%: mortality at 100 mg/m2 [5] | mortality at 200 mg/m2 [5] | mortality at 200 mg/m2 [6] | mortality at 100 mg/m2 [21] | mortality at 100 mg/m2 [25] | mortality at 200 mg/m2 [25] | mortality at 100 mg/m2 [29] | mortality at 200 mg/m2 [29] | mortality at 100 mg/m2 [30] | mortality at 100 mg/m2 [31] | mortality at 100 mg/m2 [33] | mortality at 200 mg/m2 [33] | mortality at 100 mg/m2 [34] | mortality at 100 mg/m2 [35]
15%: mortality at 100 mg/m2 [1]
80%: mortality at 100 mg/m2 [8]
43%: mortality at 200 mg/m2 [19] | mortality at 200 mg/m2 [32]
10%: mortality at 100 mg/m2 [2] | mortality at 200 mg/m2 [7] | mortality at 200 mg/m2 [10] | mortality at 100 mg/m2 [18] | mortality at 100 mg/m2 [36]
13%: mortality at 100 mg/m2 [19] | mortality at 200 mg/m2 [21]
83%: mortality at 200 mg/m2 [4] | mortality at 200 mg/m2 [16]
67%: mortality at 100 mg/m2 [14]
23%: mortality at 100 mg/m2 [13]
20%: mortality at 100 mg/m2 [10] | mortality at 200 mg/m2 [11] | mortality at 200 mg/m2 [18] | mortality at 100 mg/m2 [27]
47%: mortality at 200 mg/m2 [15]
30%: mortality at 100 mg/m2 [3] | mortality at 200 mg/m2 [3]
33%: mortality at 100 mg/m2 [23]
37%: mortality at 100 mg/m2 [20] | mortality at 100 mg/m2 [28]
40%: mortality at 200 mg/m2 [24]
3%: mortality at 200 mg/m2 [1] | mortality at 200 mg/m2 [13] | mortality at 100 mg/m2 [22] | mortality at 100 mg/m2 [26] | mortality at 200 mg/m2 [30] | mortality at 200 mg/m2 [34] | mortality at 200 mg/m2 [35]
63%: mortality at 200 mg/m2 [28]
73%: mortality at 100 mg/m2 [15] | mortality at 200 mg/m2 [20]
90%: mortality at 200 mg/m2 [8]
27%: mortality at 100 mg/m2 [11] | mortality at 100 mg/m2 [24]
93%: mortality at 100 mg/m2 [4] | mortality at 100 mg/m2 [12] | mortality at 200 mg/m2 [12] | mortality at 100 mg/m2 [16]
